The subject of data set [1] is P. aeruginosa 15159. The data set can be described thus: P. aeruginosa infection model (sepsis). Format: in vivo, mice. The procedure:
Mice were inoculated with P. aeruginosa and KYE28 (0.5 mg) was administrated sc 1 h after infection. (A) Bacterial counts in the indicated organs were analyzed after a time period of 4, 8, and 12 h. (B) In parallel, the indicated cytokines were analyzed in blood.
(A) Bacterial counts in the indicated organs were analyzed after a time period of 12 h. (B) Effects on platelets, lymphocytes, monocytes and neutrohils are shown. (C) In parallel, the indicated cytokines were analyzed in blood. […]
(A) P. aeruginosa 15159 bacteria (in PBS, ˜2×10^4 or 2×10^8 cfu/ml) were kept on ice until injection. Hundred microliter of the bacterial suspension were injected intraperitoneally (ip) into C57/Bl6 mice. At ˜10 min after the bacterial injection, 0.5 mg of NLF20 or PBS alone was injected ip into the mice. Liver, spleen and kidney were harvested, placed on ice, homogenized, and colony-forming units (cfu) determined 12 h after infection. (B) In a similar infection model (2×10^8 cfu/ml of P. aeruginosa) intraperitoneal (ip) administration after 30 min was compared with subcutaneous injection (sc) after 1 h. 0.5 mg of NLF20 was used. […] Mice were injected intraperitoneally with P. aeruginosa as above followed by ip or sc administration of NLF20 (500 μg). Survival was followed for 7 days. […] (D) NLF20 effects on TNF-α and IL-10 were analyzed in blood. (E) Thrombocytes were analyzed in blood. Treatment with NLF20 (ip and sc) increased thrombocyte levels.
Animals were Housed Under Standard Conditions of Light and Temperature and Had free access to standard laboratory chow and water. P. aeruginosa 15159 bacteria were grown to logarithmic phase (OD620˜0.5), harvested, washed in PBS, diluted in the same buffer to 2×10^8 cfu/ml, and kept on ice until injection. Hundred microliter of the bacterial suspension was injected intraperitoneally (i.p.) into female bI6 mice. […] In order to study bacterial dissemination to target organs spleen, liver and kidney were harvested, placed on ice, homogenized, and colony-forming units determined. The P-value was determined using the Mann-Whitney U-test. Data from three independent experiments were pooled.
Animals were housed under standard conditions of light and temperature AND had free access to standard laboratory chow and water. P. aeruginosa 15159 bacteria were grown to logarithmic phase (OD620˜0.5), harvested, washed in PBS, diluted in the same buffer to 2×10^8 cfu/ml, and kept on ice until injection. Hundred microliter of the bacterial suspension was injected intraperitoneally (i.p.) into female bI6 mice. Immediately subsequent the bacterial injection, 0.5 mg NLF20 (in 10 mM Tris, pH 7.4) or buffer alone was injected i.p. into the mice. In order to study bacterial dissemination to target organs spleen, liver and kidney were harvested, placed on ice, homogenized, and colony-forming units determined. The P-value was determined using the Mann-Whitney U-test. Data from three independent experiments were pooled.

Data set [2] relates to erythrocytes. Format: cell-based, human.
Data set [3] concerns P. aeruginosa, E. coli, S. pyogenes, S. aureus, C. albicans. Kind of data set: Antibacterial effects in human blood infected by bacteria. Format: cell-based. The note with it: 50% citrate blood. On the procedure:
(§1) (A) Antibacterial effects of NLF20 in presence of the indicated bacteria in human blood (made 50% in PBS) are presented. The indicated microbes (2×10^8 cfu/ml) were added to 50% citrate blood, followed by addition of peptide at 30, 60 or 120 μM. The number of cfu was determined after an incubation period of 1 h. (B) In an identical setup, hemolysis effects were studied. The bacteria were added to 50% citrate blood, followed by addition of peptide. Hemolysis was assessed after 1 hour.
E. coli ATCC 25922, P. aeruginosa 15159, or S. aureus ATCC 29213 bacteria were grown to mid-logarithmic phase in Todd-Hewitt (TH) medium (Becton and Dickinson, Maryland, USA). The microorganisms were then washed and diluted in 10 mM Tris, pH 7.4 containing 5 mM glucose. Following this, bacteria (50 μl; 2×10^6 cfu/ml) were incubated, at 37° C. for 2 hours, with NLF20 or LL-37 (at 0.03, 0.06, 0.3, 0.6, 3, 6, 30, 60 μM) in 10 mM Tris, 0.15 M NaCl, with or without 20% human citrate-plasma. […] To quantify the bactericidal activity, serial dilutions of the incubation mixtures were plated on TH agar, followed by incubation at 37° C. overnight and the number of colony-forming units was determined. […] Significance was determined using the statistical software SigmaStat (SPSS Inc., Chicago, Ill., USA).

The test system of data set [4] is human blood. Kind of data set: Hemolysis in human blood infected by bacteria. Format: cell-based. The conditions noted are these: peptide dose of 120 μM. The procedure:
as §1
In the experiments with blood infected by bacteria, citrate-blood was diluted (1:1) with PBS.

The subject of data set [5] is P. aeruginosa. Kind of data set: Electron microscopy of peptide-treated bacteria. Format: cell-based. The note with it: 30 μM, 2 h, 37° C. On the procedure: (A) Permeabilizing effects of peptides on E. coli. Bacteria were incubated with the NLF20 and permeabilization was assessed using the impermeant probe FITC. (B) Electron microscopy analysis. P. aeruginosa and S. aureus bacteria were incubated for 2 h at 37° C. with 30 μM of NLF20 and visualized by negative staining. LL-37 is shown for comparison. Scale bar represents 1 μm. Control; Buffer control.

Data set [6] relates to RAW 264.7 macrophages. The data set can be described thus: Cytokines in supernatants of LPS-stimulated macrophages. Format: cell-based, mouse. The conditions noted are these: 10 ng/ml E. coli LPS. The procedure:
RAW 264.7 macrophages were stimulated with 10 ng/ml E. coli LPS in combination with indicated concentrations of the two peptides. (B) Similar as above, but using P. aeruginosa LPS(C) KYE28 reduced TNF-αproduction, MCP-1 and IL-10 production in macrophages. RAW 264. 7 cells were stimulated with 10 ng/ml E. coli LPS and cytokines were analysed in the cell supernatants
The cytokines IL-6, IL-10, MCP-1, INF-γ, and TNF-α were measured in cell culture supernatants from RAW264.7 cells and plasma from mice injected with LPS or P. aeruginosa (with or without peptide treatment) using the Cytometric bead array; Mouse Inflammation Kit (Becton Dickinson AB) according to the manufacturer's instructions. All plasma samples were stored at −20° C. before the analysis.

The mark [7] stands for this setting: 0.5 mg sc 1 h after infection, particularly after 12 h.
The mark [8] stands for this setting: sc 1 h, or 1 and 7 h after inoculation.

Entries after “also recorded” stand apart in the source; their conditions may differ. No end group written: not given here.

For the sequence NLFRKLTHRLFRRNFGYTLR [NLF20], the “Bacterial cfu in organs” value in data set [1] (0.5 mg given subcutaneously 1 h after infection) was “reductions in cfu”. Further, the “Bacterial numbers in spleen, liver and kidney” value in data set [1] (0.5 mg ip shortly after bacterial injection, 12 h) was “significantly lower bacterial numbers in the spleen, liver, and kidney”. Besides, the Thrombocytes in blood entry in data set [1] (ip and sc) is on record as “thrombocytes were increased”. For the same sequence, the IL-10 in blood result in data set [1] (ip and sc administration) was “showing an increase (both administrations)”. Moreover, the TNF-α in blood result in data set [1] (ip treatment) is reported as “a reduction was noted after ip treatment”. Besides, the Mortality result in data set [1] (one dose (500 μg) ip, followed 7 days) is “significantly reduce mortality”. Also, the Survival entry in data set [1] (one dose (500 μg) sc, followed 7 days) is on record as “prolong survival”; in data set [1] (subcutaneous injection after 1 h and then every 24 h for the three following days (FIG. 21)), “significantly increases survival”. In data set [2], the Hemolytic activity result is “hemolytic activities at higher doses (30-60 μM)”. Moreover, the “Antibacterial effect in infected human blood” value in data set [3] (P. aeruginosa, E. coli, S. pyogenes, peptide dose 120 μM, 1 h) is “almost complete eradication of P. aeruginosa, E. coli, as well as S. pyogenes”. Besides, the “Antibacterial/antifungal effect in infected human blood” value in data set [3] (S. aureus and C. albicans) is “not active”. The “Accompanying hemolysis in infected human blood” value in data set [4] was no more than 2%. Further, the “Membrane damage by electron microscopy” value in data set [5] was “extensive membrane damage”.

With KYEITTIHNLFRKLTHRLFRRNFGYTLR [KYE28], in data set [1] (0.5 mg sc 1 h after infection, 4, 8 and 12 h), the “Bacterial levels in spleen, kidney and liver” value was “did not significantly reduce bacterial levels”. Further, the IL-10 in blood entry in data set [1] (0.5 mg sc 1 h after infection, after 12 h) is reported as “not significantly modulated”. In data set [1] (setting [7]), the IFN-γ in blood entry is “concomitant reduction of cytokine levels”, the IL-6 in blood result is reported as “concomitant reduction of cytokine levels”, the MCP-1 in blood entry is on record as “concomitant reduction of cytokine levels” and the TNF-α in blood result was “concomitant reduction of cytokine levels”. Also, in data set [1] (one dose, sc 1 h after inoculation), the Survival entry was “did not increase survival”. For the same sequence, the “Bacterial cfu in organs” value in data set [1] (one dose, sc 1 h after inoculation, 12 h) was “did not significantly reduce bacterial cfu”. Also, the “Bacterial cfu in organs” value in data set [1] (repeated treatment, sc 1 and 7 h after inoculation, 12 h) was “moderate reduction of cfu numbers”. Further, in data set [1] (setting [8]), the Cytokines in blood entry was “dramatic and highly significant reduction of cytokines in blood”; the Platelets entry is “slight, but significant increase in platelets”. For the same sequence, the Survival / mortality result in data set [1] (two-dose regime, sc 1 and 7 h after infection) is “significantly reduced mortality; also recorded: significant delay of septic symptoms as well as delayed mortality, and eventually also increase in survival”. Besides, the Hemolytic activity result in data set [2] is listed as “significant hemolytic activities at higher doses (30-60 μM)”. In addition, in data set [6], the IL-10 production entry is given as “reduced”, the MCP-1 production entry is given as “reduced” and the TNF-α production result is given as “reduced”.
